Experimental findings from patent publication US11897880B2, “7,8-dihydrobenzo[e]pyrido[3,4-c]azocine-2,5(3H,6H)-dione derivatives useful as a factor XIa inhibitors” (Janssen Pharmaceutica NV, priority 2021, dated 2024) are described below.

Read-outs that look alike come from different tables or passages of the source.

One test deals with Factor XIa (Homo sapiens, UniProt P03951). The test can be described thus: Factor XIa inhibition assay utilizing a fluorophore-quencher pair peptide substrate (FLINT). Particulars: for Ki: read-out: FXIa Ki; for IC50: read-out: FXIa IC50. It counts as biochemical. An excerpt: Biological Example 1: Factor XIa Inhibition Assay Utilizing a Fluorophore-Quencher Pair Peptide Substrate
Factor XIa, sequence (P03951 388-625 limits assumed): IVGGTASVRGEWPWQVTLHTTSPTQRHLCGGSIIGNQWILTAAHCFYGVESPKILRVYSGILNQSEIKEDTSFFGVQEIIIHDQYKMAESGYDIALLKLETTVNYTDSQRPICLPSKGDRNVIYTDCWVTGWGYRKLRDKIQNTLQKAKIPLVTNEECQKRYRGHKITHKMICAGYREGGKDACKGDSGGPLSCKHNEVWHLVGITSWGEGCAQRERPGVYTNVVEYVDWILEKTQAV
Factor XIa, sequence (P03951 19-387 partner limits assumed): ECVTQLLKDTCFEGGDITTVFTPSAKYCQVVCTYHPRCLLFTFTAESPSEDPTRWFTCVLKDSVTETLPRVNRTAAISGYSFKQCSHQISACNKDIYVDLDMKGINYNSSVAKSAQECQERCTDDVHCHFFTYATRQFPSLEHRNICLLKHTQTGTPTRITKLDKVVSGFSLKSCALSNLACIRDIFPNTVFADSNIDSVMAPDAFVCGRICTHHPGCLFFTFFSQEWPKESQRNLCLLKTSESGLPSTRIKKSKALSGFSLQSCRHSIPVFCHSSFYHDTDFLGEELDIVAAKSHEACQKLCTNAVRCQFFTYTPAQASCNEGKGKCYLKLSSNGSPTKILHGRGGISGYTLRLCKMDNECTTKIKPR
A fluorescence intensity (FLINT) based assay was used to monitor inhibition of Factor XIa. The peptide substrate, 5Fam-KLTRAETV-K5Tamra (purchased from New England Peptide) was chosen based on the FXI sequence. Conversion of zymogen FXI to its activated form, FXIa, occurs by proteolytic cleavage by […] at two sites, Arg146 and Arg180. The custom peptide used in this assay was based on the Arg146 cleavage site of FXI. The peptide substrate was designed with a fluorophore-quencher pair, where the fluorescence is quenched until FXIa cleaves the 8-mer peptide after the Arg residue.
The Factor XIa FLINT assay was used with the following 5Fam-KLTRAETV-K5Tamra assay buffer: 50 mM Tris, pH 7.5, 100 mM NaCl, 5 mM CaCl2), 0.1 mg/mL BSA, 0.03% CHAPS. Assay buffer was prepared by mixing all ingredients fresh. 5Fam-KLTRAETV-K5Tamra peptide substrate was first prepared at 10 mM in 100% DMSO, then diluted to 3 mM in 100% DMSO. Assay buffer was then added directly to the 3 mM stock of substrate to prepare the 30 μM 2× working concentration (15 μM final concentration). The 2× Factor XIa stock solution was prepared by diluting 6.562 μM stock in 1× assay buffer for a […].
Test compound(s) were run in an 11-point, 3-fold serial dilution with a final top compound concentration of 100 nM. Final DMSO in assay was 2%. FXIa was preincubated with compound for 30-minutes and then substrate was added to initiate the reaction. The assay was run with kinetic (KIN) reads at 5 min intervals over 30 minutes. The time course was linear using […] FXIa greater than 30 minutes. More specifically, the assay was run as follows: • 100 nL of 0.01 mM test compound was dispensed into black 384-well non-binding Greiner BioOne 784900 plate for 0.1 μM final concentration; • 5 μL of 1× assay buffer was dispensed to column 24 (low control) and 5 μL 2× Factor XIa solution was dispensed to columns 1-23 (column 23 high control); • the plate was centrifuged with a “cover” plate at 500 rpm for 1 min • the plate was pre-incubated for 30 minutes at room temperature with plate covered; • 5 μL of 2×5Fam-KLTRAETV-K5Tamra peptide substrate was dispensed into the entire plate, columns 1-24; • the plate was centrifuged with a “cover” plate at 500 rpm for 1 min; • the plate was read monitoring fluorescence intensity on the BMG PHERAStar at room temperature, using fluorescence module 485 nm/520 nm.
Percent inhibition (IC50) curves were generated per compound tested, and data was analyzed using a 4-parameter logistic fit using GeneData Screener. The relative fluorescence unit (RFU) values were normalized to percent inhibition using the following equation: % inhibition=((HC−LC)−(compound−LC)/(HC−LC))*100
where LC−low control=mean signal of no Factor XIa or 100% inhibition of Factor XIa; HC−high control=mean signal of Factor XIa+5Fam-KLTRAETV-K5Tamra peptide substrate with DMSO only.
An 11-point dose response curve for the test compound(s) was generated using GENDATA to determine IC50 value based on the following equation: Y=Bottom+(Top−Bottom)/(1+10^((log IC50−X)*HillSlope))
where Y is the % inhibition in the presence of X inhibitor concentration, Top=high control=mean signal of Factor XIa+5Fam-KLTRAETV-K5Tamra peptide substrate with DMSO only; Bottom=low control−mean signal of no Factor XIa or 100% inhibition of Factor XIa; HillSlope−Hill coefficient; and IC50=concentration of compound with 50% inhibition in relation to top/high control.
(§1) Representative compounds of formula (I) of the present invention were tested according to the procedure described in Biological Example 1 and Biological Example 2 above, with results as listed in Table 3, below.

The target of a further test is human plasma kallikrein (Homo sapiens, UniProt P03952). The test can be described thus: Kallikrein inhibition assay utilizing a quenched AMC peptide substrate (FLINT). It counts as biochemical. Conditions: 30 min preincubation, 50 μM Z-Gly-Pro-Arg-AMC, 2 nM kallikrein.
human plasma kallikrein, sequence (P03952 391-638 limits assumed): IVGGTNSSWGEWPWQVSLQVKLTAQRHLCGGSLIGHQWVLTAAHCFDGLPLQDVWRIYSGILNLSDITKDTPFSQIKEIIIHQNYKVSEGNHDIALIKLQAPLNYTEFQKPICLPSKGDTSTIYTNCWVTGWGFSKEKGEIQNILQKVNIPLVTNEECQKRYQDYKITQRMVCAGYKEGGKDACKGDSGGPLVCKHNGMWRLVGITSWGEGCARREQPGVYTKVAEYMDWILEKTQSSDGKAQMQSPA
human plasma kallikrein, sequence (P03952 20-390 partner limits assumed): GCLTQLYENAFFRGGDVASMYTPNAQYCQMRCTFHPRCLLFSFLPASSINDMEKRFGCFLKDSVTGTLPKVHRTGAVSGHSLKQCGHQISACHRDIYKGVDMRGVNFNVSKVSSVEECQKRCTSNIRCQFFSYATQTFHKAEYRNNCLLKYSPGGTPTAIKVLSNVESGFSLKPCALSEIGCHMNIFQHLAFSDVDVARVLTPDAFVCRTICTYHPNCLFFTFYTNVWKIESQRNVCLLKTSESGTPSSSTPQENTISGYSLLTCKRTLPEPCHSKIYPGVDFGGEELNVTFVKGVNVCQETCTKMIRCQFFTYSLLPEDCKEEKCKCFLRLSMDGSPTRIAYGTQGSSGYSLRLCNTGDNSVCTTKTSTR
Source text: Biological Example 2: Kallikrein Inhibition Assay Utilizing a Quenched AMC Peptide Substrate
A fluorescence intensity (FLINT) based assay was used to monitor inhibition of human plasma kallikrein. The peptide substrate, Z-Gly-Pro-Arg-AMC (Purchased from Bachem; Catalog #1-1150) was chosen based on its relatively low KM for kallikrein which enables running the assay at lower substrate concentrations to control background fluorescence.
The Kallikrein FLINT assay was used with the following Z-Gly-Pro-Arg-AMC assay buffer: 50 mM Tris, pH 7.5, 100 mM NaCl, 5 mM CaCl2), 0.1 mg/mL BSA, 0.03% CHAPS. Assay buffer was prepared by mixing all ingredients fresh. 2× Z-Gly-Pro-Arg-AMC peptide substrate was prepared by diluting 10 mM stock into 1× assay buffer for a 100 μM working concentration (50 μM final concentration). The 2× kallikrein stock solution was prepared by diluting 14.76 μM stock in 1× assay buffer for a 4 nM working stock solution (2 nM final concentration).
Test compound(s) were run in an 11-point, 3-fold serial dilution with a final top compound concentration of 1 μM. Final DMSO in assay was 2%. Plasma kallikrein was pre-incubated for 30-minute with compound and then 50 μM substrate was added to initiate the reaction. The assay was run with kinetic (KIN) reads at 5 min intervals over 30 minutes. The time course was linear using 2 nM kallikrein greater than 30 minutes. More specifically, the assay was run as follows: • 100 nL of 0.1 mM test compound was dispensed into black 384-well non-binding Greiner BioOne 784900 plate for 1 μM final concentration; • 5 μL of 1× assay buffer was dispensed to columns 24 (low control) and 5 μL 2× human kallikrein enzyme solution was dispensed to columns 1-23 (column 23 high control); • the plate was centrifuged with a “cover” plate at 500 rpm for 1 min • the plate was pre-incubated for 30 minutes at room temperature with plate covered; • 5 μL of 2× Z-Gly-Pro-Arg-AMC peptide substrate was dispensed into the entire plate, columns 1-24; • the plate was centrifuged with a “cover” plate at 500 rpm for 1 min; the plate was read monitoring fluorescence intensity on the BMG PHERAStar at room temperature, using fluorescence module 340 nm/440 nm.
Percent inhibition (IC50) curves were generated per compound tested, and data was analyzed using a 4-parameter logistic fit using GeneData Screener. The relative fluorescence unit (RFU) values were normalized to percent inhibition using the following equation: % inhibition=((HC−LC)−(compound−LC)/(HC−LC))*100 where LC—low control=mean signal of human kallikrein enzyme or 100% inhibition of human kallikrein enzyme; HC—high control=mean signal of […]+Z-Gly-Pro-Arg-AMC peptide substrate with DMSO only.
An 11-point dose response curve for the test compound(s) was generated using GENDATA to determine IC50 value based on the following equation: Y=Bottom+(Top−Bottom)/(1+10^((log IC50−X)*HillSlope)) • where Y is the % inhibition in the presence of X inhibitor concentration, Top=high control=mean signal of human kallikrein enzyme+Z-Gly-Pro-Arg-AMC peptide substrate with DMSO only; Bottom=low control−mean signal of no human kallikrein enzyme or 100% inhibition of human kallikrein enzyme; HillSlope—Hill coefficient; and IC50=concentration of compound with 50% inhibition in relation to top/high control.
as §1

Setting [1] is: cells that print μM themselves in the nM column.
Where [2] appears, read: cells that print μM themselves in the nM column, same assay conditions.
[3] abbreviates: 30 min preincubation, 5Fam-KLTRAETV-K5Tamra substrate 15 μM final, kinetic reads.

As for `O=C1NC2(CC2)Cc2ccc(Cl)c(F)c2-c2cc(=O)n(C(CC3CC3)c3ncc(-c4cc[n+]([O-])cc4)[nH]3)cc21` (single isomer, unassigned) [Compound 57, (R*)-4-(2-(1-(11-chloro-12-fluoro-2,5-dioxo-2,5,6,8-tetrahydro-3H-spiro[benzo[e]pyrido[3,4-c]azocine-7,1′-cyclopropan]-3-yl)-2-cyclopropylethyl)-1H-imidazol-5-yl)pyridine 1-oxide], the Ki on Factor XIa (setting [1]) was 4.84 µM. Further, the IC50 on Factor XIa (setting [2]) is 9.69 µM; on human plasma kallikrein, > 10 µM.

As for `Cn1ncc(-c2cnc(C(CC3CC3)n3cc4c(cc3=O)-c3c(ccc(Cl)c3F)CC3(CC3)NC4=O)[nH]2)cc1=O` (single isomer, unassigned) [Compound 58, (R*)-11-chloro-3-(2-cyclopropyl-1-(5-(1-methyl-6-oxo-1,6-dihydropyridazin-4-yl)-1H-imidazol-2-yl)ethyl)-12-fluoro-3H-spiro[benzo[e]pyrido[3,4-c]azocine-7,1′-cyclopropane]-2,5(6H,8H)-dione], the Ki on Factor XIa (setting [1]) is > 5 µM. Also, the IC50 on Factor XIa (setting [2]) and against human plasma kallikrein was > 10 µM throughout.

With `Cn1ncc(-c2cnc(C(CC3CC3)n3cc4c(cc3=O)-c3c(ccc(Cl)c3F)CC3(CC3)NC4=O)[nH]2)cc1=O` (single isomer, unassigned) [Compound 59, (S*)-11-chloro-3-(2-cyclopropyl-1-(5-(1-methyl-6-oxo-1,6-dihydropyridazin-4-yl)-1H-imidazol-2-yl)ethyl)-12-fluoro-3H-spiro[benzo[e]pyrido[3,4-c]azocine-7,1′-cyclopropane]-2,5(6H,8H)-dione], the Ki at Factor XIa (setting [1]) was found to be 2.19 µM. Moreover, the IC50 at Factor XIa (setting [2]) was 4.39 µM; against human plasma kallikrein, > 10 µM.

Turning to `Cn1cc(-c2cnc(C(CC3CC3)n3cc4c(cc3=O)-c3c(ccc(Cl)c3F)CC3(CC3)NC4=O)[nH]2)ccc1=O` (single isomer, unassigned) [Compound 60, (R*)-11-chloro-3-(2-cyclopropyl-1-(5-(1-methyl-6-oxo-1,6-dihydropyridin-3-yl)-1H-imidazol-2-yl)ethyl)-12-fluoro-3H-spiro[benzo[e]pyrido[3,4-c]azocine-7,1′-cyclopropane]-2,5(6H,8H)-dione], the inhibition constant Ki on Factor XIa (setting [1]) was ~4.81 µM. The figures for the IC50 on Factor XIa (setting [2]) and at human plasma kallikrein were ~9.61 µM and > 10 µM, respectively.

On to `COC(=O)Nc1ccc(-c2cnc(C(CC3CC3)n3cc4c(cc3=O)-c3c(ccc(Cl)c3F)CC3(CC3)NC4=O)[nH]2)cc1` (single isomer, unassigned) [Compound 62, Methyl (R*)-(4-(2-(1-(11-chloro-12-fluoro-2,5-dioxo-2,5,6,8-tetrahydro-3H-spiro[benzo[e]pyrido[3,4-c]azocine-7,1′-cyclopropan]-3-yl)-2-cyclopropylethyl)-1H-imidazol-5-yl)phenyl)carbamate], for which the IC50 turned out to be 0.0486 µM at Factor XIa (setting [3]) and 5.37 µM against human plasma kallikrein. Moreover, the Ki at Factor XIa came out at 0.0243 µM.

Consider `Cn1cc(-c2cnc(C(CC3CC3)n3cc4c(cc3=O)-c3c(ccc(Cl)c3F)CC3(CC3)NC4=O)[nH]2)ccc1=O` (single isomer, unassigned) [Compound 63, (S*)-11-chloro-3-(2-cyclopropyl-1-(5-(1-methyl-6-oxo-1,6-dihydropyridin-3-yl)-1H-imidazol-2-yl)ethyl)-12-fluoro-3H-spiro[benzo[e]pyrido[3,4-c]azocine-7,1′-cyclopropan]-2,5(6H,8H)-dione], for which the IC50 was 1.16 µM at Factor XIa (setting [2]) and > 10 µM against human plasma kallikrein. Further, the inhibition constant Ki at Factor XIa amounted to 0.578 µM.

As to `O=C1NC2(CC2)Cc2ccc(Cl)c(F)c2-c2cc(=O)n(C(CC3CC3)c3ncc(-c4ccc(F)cc4)[nH]3)cc21` (single isomer, unassigned) [Compound 64, (R*)-11-chloro-3-(2-cyclopropyl-1-(5-(4-fluorophenyl)-1H-imidazol-2-yl)ethyl)-12-fluoro-3H-spiro[benzo[e]pyrido[3,4-c]azocine-7,1′-cyclopropane]-2,5(6H,8H)-dione], the results for the IC50 at Factor XIa (setting [2]) and at human plasma kallikrein were 1.13 µM and > 10 µM, respectively. For the same molecule, on Factor XIa, the Ki is 0.564 µM.

`O=C1NC2(CC2)Cc2ccc(Cl)c(F)c2-c2cc(=O)n(C(CC3CC3)c3ncc(-c4ccc(F)cc4)[nH]3)cc21` (single isomer, unassigned) [Compound 65, (S*)-11-chloro-3-(2-cyclopropyl-1-(5-(4-fluorophenyl)-1H-imidazol-2-yl)ethyl)-12-fluoro-3H-spiro[benzo[e]pyrido[3,4-c]azocine-7,1′-cyclopropane]-2,5(6H,8H)-dione]: the half-inhibitory concentration (IC50) on Factor XIa (setting [3]) turned out to be 0.102 µM; against human plasma kallikrein, 5.72 µM. At Factor XIa, the inhibition constant (Ki) was 0.0508 µM.

On to `O=C1NC2(CC2)Cc2ccc(Cl)c(F)c2-c2cc(=O)n(C(CC3CC3)c3ncc(-c4ccncc4)[nH]3)cc21` (single isomer, unassigned) [Compound 66, (R*)-11-chloro-3-(2-cyclopropyl-1-(5-(pyridin-4-yl)-1H-imidazol-2-yl)ethyl)-12-fluoro-3H-spiro[benzo[e]pyrido[3,4-c]azocine-7,1′-cyclopropane]-2,5(6H,8H)-dione], for which the 50% inhibitory concentration (IC50) at Factor XIa (setting [3]) was 0.183 µM; against human plasma kallikrein, > 10 µM. Besides, on Factor XIa, the Ki worked out at 0.0917 µM.

The Ki is the dissociation constant of the complex between target and ligand, obtained from inhibition or displacement. As a reminder, the IC50 is the concentration that gives 50% inhibition.
